Like-named read-outs stand apart in the source and are kept apart here.
Legend:
[1] = in the absence of S9; cited from earlier work
[2] = test system: HEPG2 cells; assay: High-content cell toxicity screen in HEPG2 cells; assay type: cell-based; details: concentrations between 10 and 30 μM
Protocol: Effect on the cell or mitochondrial viability markers in HepG2 cells were tested for compounds up to 50 μM. HepG2 cells were plated on 96-well tissue culture treated black walled clear bottomed polystyrene plates at 0:3 _ 104 cells in 100_L per well. After 24 hr the cells were dosed with the test compound at a range of concentrations (see Assay Summary for details). At the end of the incubation period, the cells were loaded with the relevant dye/antibody for each cell health marker. The plates were then scanned using an automated fluorescent cellular imager, ArrayScanr VTI (Thermo Scientific Cellomics).

[3] = Intrinsic clearance in liver microsomes; assay type: in vitro ADME; details: 37 °C, NADPH, 45 min, mean of 5
Protocol: The reaction is terminated by the addition of methanol. Following centrifugation, the supernatant is analyzed on the LC-MS/MS. […] The data is the mean on 5 separate experiments.
The ln peak area ratio (compound peak area/internal standard peak area) is plotted against time and the gradient of the line determined.
(see Supplementary data file for details).

[4] = Log D pH 7.4, octanol/buffer shake flask method
Protocol: Briefly, octanol (pre-saturated with buffer) is added to the test compound and sonicated. Buffer at pH 7.4 (presaturated with octanol) is then added to the octanol. […] The system is mixed to allow distribution of the compound between the two phases.
Log D = Log (Coct / Caq ). Where: Coct = Concentration in octanol sample (corrected for dilution) and Caq = Concentration in aqueous sample (corrected for dilution)

[5] = molecular target: T1, Cyp 450 1A2 (Homo sapiens, UniProt P05177); assay: Cytochrome P450 inhibition in human liver microsomes; assay type: in vitro ADME; details: at 25 μM
T1 construct: tissue Cyprotex (CRO); host or cells: human liver microsomes
T1 sequence (P05177 1-516): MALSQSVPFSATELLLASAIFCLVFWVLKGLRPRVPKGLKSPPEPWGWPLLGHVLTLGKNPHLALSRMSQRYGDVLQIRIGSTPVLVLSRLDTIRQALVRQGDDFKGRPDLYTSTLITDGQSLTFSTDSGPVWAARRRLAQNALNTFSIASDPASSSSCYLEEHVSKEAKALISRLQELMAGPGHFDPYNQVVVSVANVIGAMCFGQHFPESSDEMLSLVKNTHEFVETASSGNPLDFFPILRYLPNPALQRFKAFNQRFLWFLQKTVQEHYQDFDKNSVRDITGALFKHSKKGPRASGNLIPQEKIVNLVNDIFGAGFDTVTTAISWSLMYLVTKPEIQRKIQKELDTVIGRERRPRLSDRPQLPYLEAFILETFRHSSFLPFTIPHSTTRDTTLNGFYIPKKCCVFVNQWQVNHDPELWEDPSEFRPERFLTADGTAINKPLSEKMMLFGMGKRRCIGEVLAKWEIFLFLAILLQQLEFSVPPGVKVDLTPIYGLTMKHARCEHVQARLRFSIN
Protocol: (§1) The five main cytochrome P450 isoforms (CYP1A, CYP2C9, CYP2C19, CYP2D6 and CYP3A4) were investigated in the P450 inhibition assay. […] At the end of the incubation, the formation of the metabolite was monitored by LC-MS/MS (or fluorescence in the case of CYP1A) at each of the test compound concentrations.

[6] = molecular target: T2, Cyp 450 3A4 (Homo sapiens, UniProt P08684); assay: as above; assay type: in vitro ADME; details: at 25 μM
T2 construct: tissue Cyprotex (CRO); host or cells: human liver microsomes
Protocol: as §1

[7] = molecular target: T3, Cyp 450 2D6 (Homo sapiens, UniProt P10635); assay: as above; assay type: in vitro ADME; details: at 25 μM
T3 construct: tissue Cyprotex (CRO); host or cells: human liver microsomes
Protocol: as §1

[8] = molecular target: T4, Cyp 450 2C19 (Homo sapiens, UniProt P33261); assay: as above; assay type: in vitro ADME; details: at 25 μM
T4 construct: tissue Cyprotex (CRO); host or cells: human liver microsomes
Protocol: as §1

[9] = molecular target: T5, Cyp 450 2C9 (Homo sapiens, UniProt P11712); assay: as above; assay type: in vitro ADME; details: at 25 μM
T5 construct: tissue Cyprotex (CRO); host or cells: human liver microsomes
Protocol: as §1

[10] = PK studies in rats; assay type: in vivo, Sprague-Dawley rats; details: for rat pK Cl: iv 0.5 mg/kg; for rat pK Cl / bioavailability: n = 4; for bioavailability: male, Sprague-Dawley, rat, 10 mg/kg po vs 0.5 mg/kg iv, read-out: rat pK F%; for rat pK AUC po: 10 mg/kg po, 8% Ethanol/92% PEG-400, n = 4
Protocol: The Test Items were orally administered at a dose of 10 mg/kg and a dosing volume of 10 mL/kg. […] The Test Items were intravenously administered at a dose of 0.5 mg/kg and a dosing volume of 2 mL/kg. […] Whole blood concentrations of the Test Items were measured using LC-MS/MS and selected pharmacokinetic parameters calculated using Pharsight WinNonLin software. For furthers details see Supplementary data file.

[11] = molecular target: T6, mouse RAR alpha receptor (Mus musculus, UniProt P11416); details: relative to the amplitude of the normalizing ATRA output
T6 sequence (P11416 183-417 limits assumed): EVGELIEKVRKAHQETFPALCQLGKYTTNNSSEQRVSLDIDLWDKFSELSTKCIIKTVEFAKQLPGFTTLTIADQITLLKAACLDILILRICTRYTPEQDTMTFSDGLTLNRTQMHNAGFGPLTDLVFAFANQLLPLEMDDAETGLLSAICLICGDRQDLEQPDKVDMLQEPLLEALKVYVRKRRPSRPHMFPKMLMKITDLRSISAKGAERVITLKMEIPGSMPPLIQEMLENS

[12] = liver microsomes, human microsomes
[13] = liver microsomes, mouse microsomes

T5 sequence (P11712 whole entry): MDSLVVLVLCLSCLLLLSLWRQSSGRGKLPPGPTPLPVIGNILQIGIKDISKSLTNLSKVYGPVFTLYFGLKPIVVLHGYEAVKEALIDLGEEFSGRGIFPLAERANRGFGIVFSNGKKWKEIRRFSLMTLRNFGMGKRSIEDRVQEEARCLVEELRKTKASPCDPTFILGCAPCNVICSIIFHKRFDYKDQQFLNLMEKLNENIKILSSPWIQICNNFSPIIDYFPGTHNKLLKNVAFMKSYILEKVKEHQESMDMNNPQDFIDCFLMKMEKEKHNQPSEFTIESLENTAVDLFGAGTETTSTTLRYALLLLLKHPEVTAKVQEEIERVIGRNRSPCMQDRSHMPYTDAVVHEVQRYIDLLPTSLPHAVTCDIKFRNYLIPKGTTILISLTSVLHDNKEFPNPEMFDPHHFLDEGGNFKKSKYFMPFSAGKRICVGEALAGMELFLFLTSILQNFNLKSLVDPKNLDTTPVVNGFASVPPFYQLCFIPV
T3 sequence (P10635 whole entry): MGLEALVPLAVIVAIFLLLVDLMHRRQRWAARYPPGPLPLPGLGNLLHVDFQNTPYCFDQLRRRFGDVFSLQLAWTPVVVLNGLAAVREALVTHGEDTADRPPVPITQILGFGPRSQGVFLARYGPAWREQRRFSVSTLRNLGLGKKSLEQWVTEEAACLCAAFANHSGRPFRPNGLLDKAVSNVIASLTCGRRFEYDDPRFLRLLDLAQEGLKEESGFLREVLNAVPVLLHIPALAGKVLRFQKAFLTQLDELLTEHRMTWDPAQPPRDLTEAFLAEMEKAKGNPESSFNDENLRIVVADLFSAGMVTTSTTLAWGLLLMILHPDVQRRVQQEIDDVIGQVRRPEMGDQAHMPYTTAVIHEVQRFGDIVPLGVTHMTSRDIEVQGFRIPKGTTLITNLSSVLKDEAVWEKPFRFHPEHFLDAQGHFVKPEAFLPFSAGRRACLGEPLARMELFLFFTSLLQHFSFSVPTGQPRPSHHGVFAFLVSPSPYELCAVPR
T4 sequence (P33261 whole entry): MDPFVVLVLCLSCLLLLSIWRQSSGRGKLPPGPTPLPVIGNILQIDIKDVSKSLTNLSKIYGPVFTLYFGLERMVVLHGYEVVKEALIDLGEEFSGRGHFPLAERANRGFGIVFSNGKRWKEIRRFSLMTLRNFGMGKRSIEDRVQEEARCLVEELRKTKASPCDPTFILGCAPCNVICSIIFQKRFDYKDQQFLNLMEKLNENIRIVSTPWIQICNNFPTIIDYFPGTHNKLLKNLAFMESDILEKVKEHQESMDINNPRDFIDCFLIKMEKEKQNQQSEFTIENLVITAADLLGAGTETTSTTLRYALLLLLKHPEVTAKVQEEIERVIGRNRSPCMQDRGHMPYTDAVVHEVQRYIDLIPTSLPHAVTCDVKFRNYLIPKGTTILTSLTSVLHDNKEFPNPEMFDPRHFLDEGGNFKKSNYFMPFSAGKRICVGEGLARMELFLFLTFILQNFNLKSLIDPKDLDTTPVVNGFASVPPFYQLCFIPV
T2 sequence (P08684 whole entry): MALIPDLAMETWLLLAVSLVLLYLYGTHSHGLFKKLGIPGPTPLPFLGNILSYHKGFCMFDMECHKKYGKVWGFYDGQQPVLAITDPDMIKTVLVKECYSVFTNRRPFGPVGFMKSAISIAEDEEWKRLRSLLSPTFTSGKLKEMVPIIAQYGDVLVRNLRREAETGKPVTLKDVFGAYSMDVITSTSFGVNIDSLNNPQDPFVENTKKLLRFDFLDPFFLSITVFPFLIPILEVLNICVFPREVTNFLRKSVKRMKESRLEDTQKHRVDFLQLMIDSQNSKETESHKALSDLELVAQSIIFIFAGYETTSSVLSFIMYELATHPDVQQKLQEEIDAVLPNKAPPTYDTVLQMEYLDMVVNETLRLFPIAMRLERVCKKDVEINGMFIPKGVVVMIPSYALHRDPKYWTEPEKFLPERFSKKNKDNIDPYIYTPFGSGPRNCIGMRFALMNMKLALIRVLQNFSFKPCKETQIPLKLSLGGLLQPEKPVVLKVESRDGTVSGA

In the case of `CC1(C)CCC(C)(C)c2cc(C(=O)Nc3ccc(C(=O)O)cc3)ccc21` [Compound 2], the mutagenicity in vitro [1] is listed as “mutagen”, the cell membrane permeability [2] is listed as “significant increase” and the mitochondrial membrane potential [2] is listed as “significant decrease”. For the same molecule, the microsomal CLint [3, 12] was 15.6 µL/min/mg and the logD [4] was 2.8.

For `CCOc1c(Cl)cc(C(=O)Nc2ccc(C(=O)O)cc2)cc1Cl` [Compound 5, 4-(3,5-dichloro-4-ethoxybenzamido)benzoic acid], the Cyp1A liability [5] was “inactive”, the “Cyp 3A4 liability” value [6] was “inactive” and the “Cyp 2D6 liability” value [7] was “inactive”. For the same molecule, the “Cyp 2C19 liability” value [8] was “inactive”, the “Cyp 2C9 liability” value [9] was “inactive” and the microsomal CLint [3, 12] was 18 µL/min/mg. For the same molecule, the microsomal CLint [3, 13] was 127 µL/min/mg and the logD [4] was 1.7.

With `CCOc1c(OC(C)C)cc(C(=O)Nc2ccc(C(=O)O)cc2)cc1OC(C)C` [Compound 31, 4-(4-Ethoxy-3,5-diisopropoxybenzamido)benzoic acid] the “rat pK Cl” value [10] was 1 mL/kg/min, the bioavailability ([10]; in vivo) was 81% and the microsomal CLint ([3]; human microsomes) was 4 µL/min/mg. For the same molecule, the microsomal CLint ([3]; mouse microsomes) was 8 µL/min/mg, the “RARα agonist type (partial / full agonist)” value [11] was “partial RARα agonist” and the logD [4] was 1.6.

In the case of `CC(C)Oc1cc(C(=O)Nc2ccc(C(=O)O)cc2)cc(Cl)c1OC(C)C` [Compound 39, 4-(3-chloro-4,5-diisopropoxybenzamido)benzoic acid], the “rat pK AUC po” value [10] is reported as 43,569 ng·min mL^−1, the “rat pK Cl” value [10] is reported as 10 mL/kg/min and the bioavailability ([10]; whole blood) is reported as 39%. The microsomal CLint [3, 13] was 31 µL/min/mg, the “RARα agonist type (partial / full agonist)” value [11] was “full agonist” and the logD [4] was 2.6.

For `COc1c(Cl)cc(C(=O)Nc2ccc(C(=O)O)cc2)cc1OC(C)C` [Compound 51], the “rat pK AUC po” value [10] was 50,940 ng·min mL^−1, the “rat pK Cl” value [10] was 3 mL/kg/min and the bioavailability ([10]; whole blood) was 13%. The microsomal CLint [3, 12] was 12 µL/min/mg, the microsomal CLint [3, 13] was 9 µL/min/mg and the “RARα agonist type (partial / full agonist)” value [11] was “full agonist”. It also gave a logD [4] of 1.
